Legend:
Mus musculus = assay: Tested in vivo for inflammatory potency in the mouse ear; format: functional
[1] = target: T1, Protein kinase C alpha type (Homo sapiens, UniProt P17252); assay: Displacement of [3H]-PDBU from protein kinase C-alpha
[2] = target: T1, Protein kinase C alpha type; assay: Displacement of [3H]PDBU from protein kinase C-alpha (Inactive)
[3] = target: T1, Protein kinase C alpha type; assay: Displacement of [3H]PDBU from protein kinase C-alpha

Compound | Potency (Mus musculus) [nM] | Ki [1] [nM] | Ki [3] [nM] | also measured
CC1=CC23C(=O)[C@@H](C=C(COC(=O)c4ccccc4)[C@@H](O)[C@]2(O)[C@H]1OC(=O)c1ccccc1)[C@H]1[C@@H](C[C@H]3C)C1(C)C | 0.054 |  |  | 
CC1=CC23C(=O)[C@@H](C=C(CO)[C@@H](O)[C@]2(O)[C@H]1O)[C@H]1[C@@H](C[C@H]3C)C1(C)C |  | 240 |  | 
CC1=C[C@@]23CCCC[C@@H](C=C(CO)[C@@H](O)[C@]2(O)[C@H]1O)C3=O |  |  |  | Ki [2]: Not Active
CC1=CC23C(=O)[C@@H](C=C(CO)[C@@H](O)[C@]2(O)[C@H]1OC(=O)c1ccccc1)[C@H]1[C@@H](C[C@H]3C)C1(C)C |  |  | 0.14 | 
O=C(O[C@H]1CCC23CCCC[C@H](C=C(CO)C[C@H]12)C3=O)c1ccccc1 |  |  | 165 | 
CCCCC(=O)O[C@@H]1[C@@H](C)[C@@]2(O)[C@@H](C=C(CO)C[C@]3(O)C(=O)C(C)=C[C@@H]23)[C@@H]2C(C)(C)[C@]12OC(=O)CCCC | 0.067 | 0.54 |  | 
